Assay results: US9126993B2, “Glucosylceramide synthase inhibitors” (GENZYME CORPORATION, priority 2011, dated 2015)
“Also recorded” adds a separate entry of the source.

How the values were obtained:
K14 mice [1] = experiment: Brain GluCer and GluSph levels in K14 mouse model of type 2 Gaucher disease; assay type: in vivo
Procedure: Newborn mice received daily 5 mg/kg intraperitoneal injections of Quinuclidin-3-yl(2-(4′-fluoro-[1, l′-biphenyl]-3-yl)propan-2-yl)carbamate (hereinafter “GZ 161”) in a volume of 10 μl/gram of body weight starting at postnatal day 4. K14 mice and wild type littermates were humanely sacrificed at postnatal day 10 (pre-symptomatic) and at day 14 (humane endpoint) to evaluate glycosphingolipid (GSL) levels. Mice received a 150 mg/kg dose of pentobarbital (Euthasol, Virbac Inc, Fort Worth, Tex.) and were transcardially perfused with cold 0.9% NaCl solution. Brains were dissected and divided; one hemisphere was used for GSL analysis and the other was fixed in 4% paraformaldehyde for 96 hours and processed for histology.
Quantitative sphingolipid analysis was performed by liquid chromatography and tandem mass spectrometry (LC/MS/MS) as previously described in Merrill et al., Methods 36: 207-224 (2005). Briefly, 10 μl of brain tissue homogenate (tissue weight/water:100 mg/ml) was extracted with 1.00 ml of an organic solvent mixture (97% acetonitrile, 2% methanol, and 1% acetic acid, v/v) and vortexed vigorously for 10 min. Extracted sphingolipids (GluCer and GluSph) were directly separated by hydrophilic liquid chromatography (Atlantis HILIC column, Waters Corp.) and analyzed by triple quadrupole tandem mass spectrometry (API 4000, Applied Biosystems/MDS SCIEX) and compared with sphingolipid standards (Matreya, LLC; Pleasant Gap, Pa.)

K14 mice [2] = experiment: Brain histopathology (CD68, F4/80, GFAP staining) in K14 mice; assay type: in vivo, mouse; details: daily IP from P4, staining at P10, vs vehicle
Procedure: After genotype confirmation, animals were humanely sacrificed at 10 days of age, At this age K14 mice are asymptomatic. Mice received an intraperitoneal injection of 150 mg/kg sodium pentobarbital ((Euthasol, Virbac Inc, Fort Worth, Tex.) and were perfused by an intracardial infusion of chilled 0.9% sodium chloride. Brains were removed and post fixed in 4% paraformaldehyde for 72 hours. Tissue was transferred to PBS and paraffin embedded. Sagital sections 5 μm thick were cut and stained as described below. Gliosis and the presence of cells of the macrophage lineage were evaluated by means of glial fibrillary acidic protein staining and expression of CD68 and F4/80 pan-macrophage markers using the Leica Bond Max Immunostainer system (Leica Microsystems, Wetzlar, Germany).
GFAP staining: Paraffin sections were placed on mounting slides and processed using the Bond Polymer Refine IHC system (Leica Microsystems, Wetlzar, Germany) blocked for 10 minutes in serum-free protein block (Dako systems, Glostrup, Denmark), incubated for 30 minutes in a 1:1500 dilution of primary anti-GFAP antibody in Dako antibody diluent (Dako, Glostrup, Denmark), and stained using the Bond Polymer Refine detection kit (Leica Microsystems, Wetzlar, Germany). […]
For each staining technique exposure-matched digital images were obtained from similar brain regions of each experimental group using the Aperio ScanScope XT system (Aperio Technologies, Vista, Calif.). Stained slides were digitalized in high resolution and six areas of interest were highlighted in each slide and analyzed independently by histomorphometry. Positively stained area and nuclei were determined and quantitative data were analyzed by a one-way analysis of variance followed by Tukey's multiple comparison test using the Graph Pad Prism V 4.0 (GraphPad Software, San Diego, Calif.). […]

Fabry mice = experiment: Substrate reduction therapy in Fabry mouse model: Gb3 and lyso-Gb3 levels; assay type: in vivo; details: male and female Fabry mice treated 4 months from ~8 months old; GZ 452 60 and 120 mg/kg/day, GZ 161 20 mg/kg/day
Procedure: In the following experiments, mice dosed with GCS inhibitors at either ˜60 mg/kg/day of (S)-Quinuclidin-3-yl(2-(2-(4-fluorophenyl)thiazol-4-yl)propan-2-yl)carbamate (S)-2-hydroxysuccinate salt (hereinafter “GZ 452”) or ˜300 mg/kg/day of (1R,2R)-Octanoic acid[2-(2′,3′-dihydro-benzo[1,4] dioxin-6′-yl)-2-hydroxy-1-pyrrolidin-1-ylmethyl-ethyl]-amide-L-tartaric acid salt (hereinafter “GZ 638”) as a component of the pelleted food diet provided ad libitum. Lipid analysis was by ESI/MS as described in Marshall et al., PLoS ONE 5:e15033 (2010). As discussed in further detail below, treatment started when the mice were 3, 8 or 12 months of age to test the efficacy at different disease severities. Blood and urine was collected monthly and periodic tissue harvests provided materials to evaluate efficacy of the therapy (Gb3 and lyso-Gb3 levels). […] As further discussed below, the efficacy of SMT was affected by the age of the mice at the start of treatment. Generally, the older the mouse, the higher the levels of Gb3 stored and thus a longer period of treatment was required in order to affect similar therapeutic benefit (see FIG. 4). The experiments and results are described further below.
In this experiment, Fabry mice were treated with GCS inhibitors in their diet for 4 months starting at 8 months old. […] Age-matched wild-type levels (WT) are also shown. […]

[3] = K14 mice, 5 mg/kg IP daily from P4, brains analyzed at P10
[4] = daily IP, compared to vehicle-treated K14 mice at the humane endpoint (14-15 days of age)

With `CC(C)(NC(=O)OC1CN2CCC1CC2)c1cccc(-c2ccc(F)cc2)c1` (stereo not shown) [GZ 161, Quinuclidin-3-yl(2-(4′-fluoro-[1,1′-biphenyl]-3-yl)propan-2-yl)carbamate] the “brain GluCer level reduction” value (K14 mice [1]; [3]) was roughly 70%, the “brain GluSph level reduction” value (K14 mice [1]; [3]) was roughly 60% and the “brain GluCer level reduction” value (K14 mice [1]; [4]) was greater than 60%. For the same compound, the “brain GluSph level reduction” value (K14 mice [1]; [4]) was greater than 60%, the “symptom status of treated K14 mice” value (K14 mice [1]; daily IP, time point of brain analysis) was “asymptomatic” and the “crossing the blood brain barrier” value (K14 mice [1]; inferred from reduction of brain glycosphingolipids after systemic (IP) administration) was “capable of crossing the blood brain barrier”. For the same compound, the “CD68+ cells in brain (hippocampus, thalamus, brainstem, cerebellum)” value (K14 mice [2]) was “reduces the numbers of CD68+ cells in all of these locations; also recorded: significant reductions the CD68+ cells in all brain regions”, the “F4/80+ cells in brain” value (K14 mice [2]) was “reduced the numbers of F4/80+ cells in the thalamus and brainstem, but had marginal effects in other brain regions; also recorded: significant reductions the F4/80+ cells in the thalamus and brainstem” and the “GFAP staining (gliosis) in brain” value (K14 mice [2]) was “decreased GFAP staining in the hippocampus and cerebellum; also recorded: significant reductions the GFAP+ cells in the hippocampus and cerebellum”. For the same compound, the “Gb3 in kidney tissue relative to untreated controls” value (Fabry mice) was “significantly reduced the amount of Gb3”.
